Experimental data from PMC9103758 (International Journal of Molecular Sciences, 2022).

Tests used:
Assay type in all cases: cell-based
ANO1 = target: T1, ANO1 (Homo sapiens, UniProt Q5XXA6, DEL476-501); test: Apical membrane current of ANO1 in FRT cells expressing human ANO1
T1 construct: expressed in transfected cells; host or cells: Fisher rat thyroid (FRT) cells; The YFP assay uses FRT-ANO1-YFP cells, which also carry the halide sensor
T1 sequence (Q5XXA6 with tags, fused parts or gaps isoform Q5XXA6-5 DEL539-564): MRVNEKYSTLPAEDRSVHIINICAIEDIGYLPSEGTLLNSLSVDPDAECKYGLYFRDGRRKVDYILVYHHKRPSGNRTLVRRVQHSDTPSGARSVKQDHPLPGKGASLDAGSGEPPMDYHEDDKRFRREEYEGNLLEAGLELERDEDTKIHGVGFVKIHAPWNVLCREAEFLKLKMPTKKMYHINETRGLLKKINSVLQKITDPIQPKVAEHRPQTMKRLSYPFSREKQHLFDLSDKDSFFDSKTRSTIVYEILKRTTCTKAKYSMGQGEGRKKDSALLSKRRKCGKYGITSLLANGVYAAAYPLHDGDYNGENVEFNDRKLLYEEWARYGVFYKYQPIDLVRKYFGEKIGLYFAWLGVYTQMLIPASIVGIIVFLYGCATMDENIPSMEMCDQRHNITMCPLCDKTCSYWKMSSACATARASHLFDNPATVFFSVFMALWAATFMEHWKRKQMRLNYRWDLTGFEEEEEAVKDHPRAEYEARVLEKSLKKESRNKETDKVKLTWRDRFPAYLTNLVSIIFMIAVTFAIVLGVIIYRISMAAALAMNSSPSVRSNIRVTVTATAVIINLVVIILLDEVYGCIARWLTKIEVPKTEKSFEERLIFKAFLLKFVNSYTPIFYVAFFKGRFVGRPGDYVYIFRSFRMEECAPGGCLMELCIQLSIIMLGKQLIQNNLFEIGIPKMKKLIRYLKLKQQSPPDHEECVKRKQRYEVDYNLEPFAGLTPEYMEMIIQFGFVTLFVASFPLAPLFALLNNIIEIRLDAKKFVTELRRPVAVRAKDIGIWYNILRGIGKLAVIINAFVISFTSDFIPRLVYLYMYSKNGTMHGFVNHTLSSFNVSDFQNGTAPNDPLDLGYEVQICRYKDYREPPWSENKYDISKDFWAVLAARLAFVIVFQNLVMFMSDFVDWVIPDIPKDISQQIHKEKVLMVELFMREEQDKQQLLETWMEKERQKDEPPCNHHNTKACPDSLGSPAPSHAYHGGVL
Procedure: (A) Representative Fluo4 fluorescence traces from 3 independent experiments in FRT cells. […] (B,C) Representative apical membrane currents from 3–4 independent experiments in FRT cells expressing human ANO1. […] (D) Representative YFP fluorescence traces in FRT cells expressing human ANO2. […] (E) Representative Fluo4 fluorescence traces from 3 independent experiments in FRT cells. Cells were pretreated with DCPIB for 10 min followed by application of 100 μM ATP. (F) Representative apical membrane currents in FRT cells expressing human ANO1.
Snapwell inserts containing ANO1(abc) or CFTR-expressing FRT cells were mounted in Ussing chambers (Physiological Instruments, San Diego, CA). The basolateral hemichamber was filled with buffer solution (in mM): 120 NaCl, 5 KCl, 1 MgCl2, 1 CaCl2, 10 D-glucose, 2.5 HEPES, and 25 NaHCO3 (pH 7.4). The apical hemichamber was filled with buffer solution (in mM): 60 NaCl, 60 Na-gluconate, 5 KCl, 1 MgCl2, 1 CaCl2, 10 D-glucose, 2.5 HEPES, and 25 NaHCO3 (pH 7.4). FRT cells were bathed for a 10 min stabilization period and gassed with 5% CO2 and 95% O2 at 37 °C. The apical membrane current was recorded with an EVC4000 Multi-Channel V/I Clamp (World Precision Instruments, Sarasota, FL, USA) and a PowerLab 4/35 (AD Instruments, Castle Hill, Australia).

[1] = target: T2, VRAC-mediated chloride current (ICl, swell) in HEK293T cells (Homo sapiens, UniProt Q8IWT6); test: Whole-cell voltage-clamp of ICl,swell in HEK293T cells; details: dose-dependent
T2 construct: endogenous in cells; host or cells: HEK293T
T2 sequence (Q8IWT6 1-810): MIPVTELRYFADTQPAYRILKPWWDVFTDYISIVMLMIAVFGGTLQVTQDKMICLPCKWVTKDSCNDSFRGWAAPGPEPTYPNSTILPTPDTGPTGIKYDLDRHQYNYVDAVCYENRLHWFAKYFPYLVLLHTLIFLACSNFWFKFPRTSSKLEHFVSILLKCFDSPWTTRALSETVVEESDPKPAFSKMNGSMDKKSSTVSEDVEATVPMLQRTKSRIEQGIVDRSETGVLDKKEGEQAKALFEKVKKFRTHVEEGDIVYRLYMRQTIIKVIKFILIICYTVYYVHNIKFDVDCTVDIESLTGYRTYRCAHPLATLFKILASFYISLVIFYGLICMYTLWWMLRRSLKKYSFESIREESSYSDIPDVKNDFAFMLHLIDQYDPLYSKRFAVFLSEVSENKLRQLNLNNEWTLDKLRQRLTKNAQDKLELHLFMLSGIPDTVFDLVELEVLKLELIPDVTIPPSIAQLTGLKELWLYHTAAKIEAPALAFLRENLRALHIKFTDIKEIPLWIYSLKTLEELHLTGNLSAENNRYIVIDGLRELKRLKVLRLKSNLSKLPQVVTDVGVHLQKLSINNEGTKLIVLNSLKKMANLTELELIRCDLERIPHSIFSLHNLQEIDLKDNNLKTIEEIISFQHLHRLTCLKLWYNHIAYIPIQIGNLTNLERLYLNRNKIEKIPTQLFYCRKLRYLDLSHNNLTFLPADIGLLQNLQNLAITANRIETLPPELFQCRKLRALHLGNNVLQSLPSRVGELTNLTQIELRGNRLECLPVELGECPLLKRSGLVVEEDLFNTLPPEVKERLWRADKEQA
Procedure: (§1) (A) Whole-cell membrane currents were recorded at a holding potential of −50 mV by voltage steps ranging from −120 to 120 mV (in steps of 20 mV) in HEK293T cells. […] (C) Whole-cell VRAC currents were recorded at a holding potential of −50 mV by voltage steps ranging from −100 to 100 mV (in steps of 20 mV) in LN215 cells.
(§2) For volume-regulated anion channel (VRAC) currents measurement, the isotonic bath solution contained (in mM): 150 NaCl, 6 KCL, 1.5 CaCl2, 1 MgCl2, 10 glucose, 1 HEPES, and pH 7.4 with NaOH (320 mOsm). […] The pipette solution contained (in mM): 40 CsCl, 100 Cs-methanesulfonate, 0.5 EGTA, 1 MgCl2, 1.9 CaCl2, 5 EGTA, 4 Tris−ATP, 10 HEPES, and pH 7.2 with CsOH (290 mOsm). Pipettes were pulled from borosilicate glass and had resistances of 3–5 MΩ after fire polishing. Seal resistances were between 3 and 10 GΩ. The liquid junction potential (~2.4 mV) was not corrected. After establishing the whole-cell configuration, whole-cell capacitance and series resistance were compensated with the amplifier circuitry. VRAC was activated by exposing LN215 cells to a 25% hypotonic bath solution. Whole-cell currents were elicited by applying hyperpolarizing and depolarizing voltage pulses from a holding potential of 0 mV to potentials between −100 mV and +100 mV or −120 mV and +120 mV in steps of 20 mV. Recordings were made at room temperature. […]

VRAC in HeLa cells = target: T3, VRAC in HeLa cells (Homo sapiens, UniProt Q8IWT6)
T3 construct: endogenous in cells; host or cells: HeLa cervical cancer cells stably expressing the YFP halide sensor
T3 sequence (Q8IWT6 1-810): T2 sequence (Q8IWT6 1-810)

[2] = target: T4, VRAC-mediated chloride current (ICl, swell) in LN215 cells (Homo sapiens, UniProt Q8IWT6); test: Whole-cell voltage-clamp of ICl,swell in LN215 cells; details: dose-dependent
T4 construct: endogenous in cells; host or cells: LN215 human glioma cells stably expressing the halide sensor YFP-F46L/H148Q/I152L
T4 sequence (Q8IWT6 1-810): T2 sequence (Q8IWT6 1-810)
Procedure: as §1, §2

COc1cccc(C(c2c(O)c3ccccc3oc2=O)c2c(O)c3ccccc3oc2=O)c1O [VI-116, 3,3′-((2-hydroxy-3-methoxyphenyl)methylene)bis(4-hydroxy-2H-chromen-2-one)]
effect on ANO1 channel activity (ANO1; 10 μM): minimal effect | effect on ANO1 activation by Eact (apical membrane current) (ANO1; FRT cells expressing human ANO1, 3 μM Eact): did not alter | effect on ANO1 activation by ATP (apical membrane current) (ANO1; FRT cells expressing human ANO1, 100 μM ATP): did not alter | effect on hypotonic perfusion activated ICl, swell [1]: completely blocked | IC50 (VRAC in HeLa cells): 1.2 ± 0.08 µM | effect on hypotonic perfusion activated ICl, swell [2]: completely blocked
